Patent US10533010B2, “Substituted indole Mcl-1 inhibitors” (Vanderbilt University, priority 2014, dated 2020)
Where two headings read alike, the source gives them in different places.

Target: recombinant Mcl-1 (residues 172-327) (Homo sapiens (Human), UniProt Q07820)
Experiment: Fluorescence polarization anisotropy competition assay (FITC-Bak or FITC-Bim BH3 peptide) with Mcl-1
Assay type: binding
Settings: Table 2, FITC-Bak or FITC-Bim peptide competition, Ki converted from IC50, read-out: Ki for Inhibition of Mcl-1

Sequence of recombinant Mcl-1 (residues 172-327) (Q07820 172-327): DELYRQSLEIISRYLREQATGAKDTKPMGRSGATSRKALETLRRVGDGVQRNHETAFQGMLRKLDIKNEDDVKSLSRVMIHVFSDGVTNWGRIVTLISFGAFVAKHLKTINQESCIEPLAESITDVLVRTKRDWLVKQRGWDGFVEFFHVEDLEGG

SMILES | Ki (Ki bins given in μM) | Ki (Ki bins given in nM)
Cc1cc(OCCCc2c(C(=O)NCc3cc(C(=O)NC4Cc5ccccc5C4)cc(NC4Cc5ccccc5C4)n3)[nH]c3c(-c4c(C)nn(C)c4C)cccc23)cc(C)c1Cl [I-278, 3-(3-(4-chloro-3,5-dimethylphenoxy)propyl)-N-((6-((2,3-dihydro-1H-inden-2-yl)amino)-4-((2,3-dihydro-1H-inden-2-yl)carbamoyl)pyridin-2-yl)methyl)-7-(1,3,5-trimethyl-1H-pyrazol-4-yl)-1H-indole-2-carboxamide] | 1 to 9.99 µM | 
Cc1cc(OCCCc2c(C(=O)NCCC(=O)NS(=O)(=O)c3cccc(C#N)c3)[nH]c3ccccc23)cc(C)c1Cl [I-19, 3-(3-(4-chloro-3,5-dimethylphenoxy)propyl)-N-(3-((3-cyanophenyl)sulfonamido)-3-oxopropyl)-1H-indole-2-carboxamide] |  | 0.101 to 0.299 µM
Cc1cc(OCCCc2c3n(c4c(-c5c(C)nn(C)c5C)c(Cl)ccc24)CCCN(Cc2cc(CCNC(=O)CC(C)C)cc(C(=O)O)c2)C3=O)cc(C)c1Cl [I-307, 3-((8-chloro-11-(3-(4-chloro-3,5-dimethylphenoxy)propyl)-1-oxo-7-(1,3,5-trimethyl-1H-pyrazol-4-yl)-4,5-dihydro-1H-[1,4]diazepino[1,2-a]indol-2(3H)-yl)methyl)-5-(2-(3-methylbutanamido)ethyl)benzoic acid] |  | < 0.05 µM
Cc1cc(OCCCc2c3n(c4c(-c5c(C)nn(C)c5C)c(Cl)ccc24)CCN(c2cc(C(=O)O)cc(N4CCOCC4)c2)C3=O)cc(C)c1Cl [I-213, 3-(7-chloro-10-(3-(4-chloro-3,5-dimethylphenoxy)propyl)-1-oxo-6-(1,3,5-trimethyl-1H-pyrazol-4-yl)-3,4-dihydropyrazino[1,2-a]indol-2(1H)-yl)-5-morpholinobenzoic acid] |  | < 0.05 µM
Cc1cc(OCCCc2c3n(c4c(-c5c(C)nn(C)c5C)c(Cl)ccc24)CCCN(Cc2cc(C(=O)O)cc(-c4ccc(O)cc4)c2)C3=O)cc(C)c1Cl [I-306, 5-((8-chloro-1-(3-(4-chloro-3,5-dimethylphenoxy)propyl)-1-oxo-7-(1,3,5-trimethyl-1H-pyrazol-4-yl)-4,5-dihydro-1H-[1,4]diazepino[1,2-a]indol-2(3H)-yl)methyl)-4′-hydroxy-[1,1′-biphenyl]-3-carboxylic acid] |  | < 0.05 µM
Cc1cc(OCCCc2c(C(=O)Nc3cc(C(=O)O)cc(N4CCN(C)CC4)c3)[nH]c3c(-c4c(C)nn(C)c4C)c(Cl)ccc23)cc(C)c1Cl [I-207, 3-(6-chloro-3-(3-(4-chloro-3,5-dimethylphenoxy)propyl)-7-(1,3,5-trimethyl-1H-pyrazol-4-yl)-1H-indole-2-carboxamido)-5-(4-methylpiperazin-1-yl)benzoic acid] |  | < 0.05 µM
Cc1cc(OCCCc2c(C(=O)NCC(=O)NCC(=O)O)[nH]c3c(-c4c(C)nn(C)c4C)cccc23)cc(C)c1Cl [I-290, (3-(3-(4-chloro-3,5-dimethylphenoxy)propyl)-7-(1,3,5-trimethyl-1H-pyrazol-4-yl)-1H-indole-2-carbonyl)glycylglycine] |  | < 0.05 µM
Cc1cc(OCCCc2c3n(c4c(-c5c(C)nn(C)c5C)c(Cl)ccc24)CCCN(c2ccc(C(=O)NS(=O)(=O)C4CC4)cc2)C3=O)cc(C)c1Cl [I-361, 4-(8-chloro-11-(3-(4-chloro-3,5-dimethylphenoxy)propyl)-1-oxo-7-(1,3,5-trimethyl-1H-pyrazol-4-yl)-4,5-dihydro-H-[1,4]diazepino[1,2-a]indol-2(3H)-yl)-N-(cyclopropylsulfonyl)benzamide] |  | < 0.05 µM
Cc1cc(OCCCc2c3n(c4c(-c5c(C)nn(C)c5C)c(Cl)ccc24)[C@H](C)CN(c2ccc(C(=O)O)cc2)C3=O)cc(C)c1Cl [I-172, (R)-4-(7-chloro-10-(3-(4-chloro-3,5-dimethylphenoxy)propyl)-4-methyl-1-oxo-6-(1,3,5-trimethyl-1H-pyrazol-4-yl)-3,4-dihydropyrazino[1,2-a]indol-2(1H)-yl)benzoic acid] |  | < 0.05 µM
Cc1cc(OCCCc2c3n(c4c(-c5c(C)nn(C)c5C)c(Cl)ccc24)CCCN(c2cc(C(=O)O)c4ccn(CCN(C)C)c4c2)C3=O)cc(C)c1Cl [I-243, 6-(8-chloro-11-(3-(4-chloro-3,5-dimethylphenoxy)propyl)-1-oxo-7-(1,3,5-trimethyl-1H-pyrazol-4-yl)-4,5-dihydro-1H-[1,4]diazepino[1,2-a]indol-2(3H)-yl)-1-(2-(dimethylamino)ethyl)-1H-indole-4-carboxylic acid] |  | < 0.05 µM
Cc1cc(OCCCc2c3n(c4c(-c5c(C)nn(C)c5C)c(Cl)ccc24)[C@H](C)CN(Cc2cccc(C(=O)O)c2)C3=O)cc(C)c1Cl [I-155, (R)-3-((7-chloro-10-(3-(4-chloro-3,5-dimethylphenoxy)propyl)-4-methyl-1-oxo-6-(1,3,5-trimethyl-1H-pyrazol-4-yl)-3,4-dihydropyrazino[1,2-a]indol-2(1H)-yl)methyl)benzoic acid] |  | < 0.05 µM
Cc1cc(OCCCc2c3n(c4c(-c5c(C)nn(C)c5C)c(Cl)ccc24)CCCNC3=O)cc(C)c1Cl [I-118, 8-chloro-11-(3-(4-chloro-3,5-dimethylphenoxy)propyl)-7-(1,3,5-trimethyl-1H-pyrazol-4-yl)-2,3,4,5-tetrahydro-1H-[1,4]diazepino[1,2-a]indol-1-one] |  | < 0.05 µM
Cc1cc(OCCCc2c3n(c4c(-c5c(C)nn(C)c5C)c(Cl)ccc24)CCCN(c2cccc(C(=O)NS(C)(=O)=O)c2)C3=O)cc(C)c1Cl [I-368, 3-(8-chloro-11-(3-(4-chloro-3,5-dimethylphenoxy)propyl)-1-oxo-7-(1,3,5-trimethyl-1H-pyrazol-4-yl)-4,5-dihydro-H-[1,4]diazepino[1,2-a]indol-2(3H)-yl)-N-(methylsulfonyl)benzamide] |  | < 0.05 µM
Cc1cc(OCCCc2c(C(=O)N[C@H]3CC[C@@H](C(=O)O)CC3)[nH]c3c(-c4c(C)nn(C)c4C)c(Cl)ccc23)cc(C)c1Cl [I-332, (1s,4s)-4-(6-chloro-3-(3-(4-chloro-3,5-dimethylphenoxy)propyl)-7-(1,3,5-trimethyl-1H-pyrazol-4-yl)-1H-indole-2-carboxamido)cyclohexane-1-carboxylic acid] |  | < 0.05 µM
Cc1cc(OCCCc2c(C(=O)NCc3ccnc(N4CCc5ccccc5C4)c3)[nH]c3c(-c4c(C)nn(C)c4C)cccc23)cc(C)c1Cl [I-263, 3-(3-(4-chloro-3,5-dimethylphenoxy)propyl)-N-((2-(3,4-dihydroisoquinolin-2(1H)-yl)pyridin-4-yl)methyl)-7-(1,3,5-trimethyl-1H-pyrazol-4-yl)-1H-indole-2-carboxamide] |  | 0.301 to 0.5 µM
Cc1cc(OCCCc2c3n(c4c(-c5c(C)nn(C)c5C)c(Cl)ccc24)CCCN(c2nn(C)c4cc(C(=O)O)ccc24)C3=O)cc(C)c1Cl [I-375, 3-(8-chloro-11-(3-(4-chloro-3,5-dimethylphenoxy)propyl)-1-oxo-7-(1,3,5-trimethyl-1H-pyrazol-4-yl)-4,5-dihydro-1H-[1,4]diazepino[1,2-a]indol-2(3H)-yl)-1-methyl-1H-indazole-6-carboxylic acid] |  | < 0.05 µM
Cc1cc(OCCCc2c3n(c4c(-c5c(C)nn(C)c5C)c(Cl)ccc24)CCN(Cc2ccc(C(=O)O)cc2)C3=O)cc(C)c1Cl [I-140, 4-((7-chloro-10-(3-(4-chloro-3,5-dimethylphenoxy)propyl)-1-oxo-6-(1,3,5-trimethyl-1H-pyrazol-4-yl)-3,4-dihydropyrazino[1,2-a]indol-2(1H)-yl)methyl)benzoic acid] |  | < 0.05 µM
Cc1cc(OCCCc2c3n(c4c(-c5c(C)nn(C)c5C)c(Cl)ccc24)CCCN(c2cc(C(=O)O)cc4[nH]ccc24)C3=O)cc(C)c1Cl [I-252, 4-(8-chloro-11-(3-(4-chloro-3,5-dimethylphenoxy)propyl)-1-oxo-7-(1,3,5-trimethyl-1H-pyrazol-4-yl)-4,5-dihydro-1H-[1,4]diazepino[1,2-a]indol-2(3H)-yl)-1H-indole-6-carboxylic acid] |  | < 0.05 µM
Cc1cc(OCCCc2c3n(c4c(-c5c(C)nn(C)c5C)c(Cl)ccc24)C(C)[C@@H](C)N(Cc2cccc(C(=O)O)c2)C3=O)cc(C)c1Cl (stereo partly drawn) [I-145, 3-(((3R)-7-chloro-10-(3-(4-chloro-3,5-dimethylphenoxy)propyl)-3,4-dimethyl-1-oxo-6-(1,3,5-trimethyl-1H-pyrazol-4-yl)-3,4-dihydropyrazino[1,2-a]indol-2(1H)-yl)methyl)benzoic acid] |  | < 0.05 µM
Cc1cc(OCCCc2c3n(c4c(-c5c(C)nn(C)c5C)c(Cl)ccc24)CCC(C)N(Cc2ccc(C(=O)O)cc2)C3=O)cc(C)c1Cl (centres unmarked) [I-127, 4-((8-chloro-11-(3-(4-chloro-3,5-dimethylphenoxy)propyl)-3-methyl-1-oxo-7-(1,3,5-trimethyl-1H-pyrazol-4-yl)-4,5-dihydro-1H-[1,4]diazepino[1,2-a]indol-2(3H)-yl)methyl)benzoic acid] |  | < 0.05 µM
Cc1cc(OCCCc2c3n(c4c(-c5c(C)nn(C)c5C)c(Cl)ccc24)C[C@@H](C)N(c2cccc(C(=O)O)c2)C3=O)cc(C)c1Cl [I-157, (R)-3-(7-chloro-10-(3-(4-chloro-3,5-dimethylphenoxy)propyl)-3-methyl-1-oxo-6-(1,3,5-trimethyl-1H-pyrazol-4-yl)-3,4-dihydropyrazino[1,2-a]indol-2(1H)-yl)benzoic acid] |  | < 0.05 µM
Cc1cc(OCCCc2c3n(c4c(-c5c(C)nn(C)c5C)c(Cl)ccc24)CCC(C)N(Cc2ccc(C(=O)O)o2)C3=O)cc(C)c1Cl (centres unmarked) [I-126, 5-((8-chloro-1-(3-(4-chloro-3,5-dimethylphenoxy)propyl)-3-methyl-1-oxo-7-(1,3,5-trimethyl-1H-pyrazol-4-yl)-4,5-dihydro-1H-[1,4]diazepino[1,2-a]indol-2(3H)-yl)methyl)furan-2-carboxylic acid] |  | < 0.05 µM
Cc1cc(OCCCc2c3n(c4c(-c5c(C)nn(C)c5C)c(Cl)ccc24)[C@@H](C)CN(c2cc(C(=O)O)c4ccn(C)c4c2)C3=O)cc(C)c1Cl [I-169, (S)-6-(7-chloro-10-(3-(4-chloro-3,5-dimethylphenoxy)propyl)-4-methyl-1-oxo-6-(1,3,5-trimethyl-1H-pyrazol-4-yl)-3,4-dihydropyrazino[1,2-a]indol-2(1H)-yl)-1-methyl-1H-indole-4-carboxylic acid] |  | < 0.05 µM
